This is an account of results in publication PMC5552691, “Novel giardicidal compounds bearing proton pump inhibitor scaffold proceeding through triosephosphate isomerase inactivation” (Scientific Reports, 2017).

In data set [1] the target is T1, triosephosphate isomerase of G. lamblia (GlTIM) (Giardia intestinalis, UniProt P36186, C202A).
T1 construct: His-tag (N, cleaved yes); TEV protease recognition site (N); made in house; host or cells: Escherichia coli
The data set can be described thus: Inactivation assay of recombinant GlTIM (C202A variant). Type of data set: biochemical. As to conditions: for kinact/KI: pH 7.4, read-out: Second-order rate constant of inactivation; for Inactivation of GlTIM (in words): 2 hours at 37 °C. Here is the method: We evaluated the effect of compounds incubating the enzyme with each one of them for 2 hours at 37 °C and the IC50 values were then calculated from the residual activity data.
GlTIM (200 µg/mL) was incubated with increasing concentrations of compounds. After 2 hours of incubation at 37 °C, the reactions were stopped by dilution and the remaining activity was determined as described in the material and methods section.
(§1) For all assays we used mutant GlTIM C202A in order to work with the dimeric form of enzyme; this mutant was referred in the paper as GlTIM and was prepared as described before. The recombinant GlTIM containing a His-tag in its NH-terminal together with a recognition region for tobacco […] virus protease, was expressed in Escherichia coli. The GlTIM purification was performed by using IMAC method; after His-tag was removed, the enzyme was stored at 4 °C in a buffer containing 100 mM triethanolamine, 10 mM EDTA, pH 7.4 (TE buffer). […] Mutant of GlTIM C222A and human TIM (HsTIM) were prepared as described before, [33]. Protein content of GlTIM and HsTIM was calculated by using a ε M ^−1cm^−1 of 26,600 and 32,595, respectively. For all assays, the enzymes were freshly prepared with no more of two weeks of storage.
TIM activity was determined in a Cary50 spectrophotometer (Varian) at 25 °C using coupling assay following the conversion of D-glyceraldehyde 3-phosphate to dihydroxyacetone phosphate as described before. The reaction mixture contained TE buffer (pH 7.4) supplemented with 0.2 mM NADH, 1 mM GAP, and 0.9 U of alpha-GDH. The reaction started by adding 5 ng/mL of TIM.
Omeprazole and compounds stock solutions were freshly prepared using 100% DMSO as solvent. […] The reaction was stopped by diluting the enzyme 40,000 times in TE buffer and then, the remaining activity was determined. The second-order rate constants of inactivation were calculated from obtaining the pseudo-first order rate constant (k 1) values at each fixed concentration of compounds by fitting them to an exponential decay. Then, the k 1 values were re-plotted against the employed concentrations of each compound; the second-order rate constant value of inactivation was obtained from the slope of these plots.

The target of the next data set is T2, GlTIM (Giardia intestinalis, UniProt P36186, C202A).
T2 construct: His-tag (N, cleaved yes); TEV protease recognition site (N); made in house; host or cells: Escherichia coli
T2 sequence (P36186 whole entry C202A): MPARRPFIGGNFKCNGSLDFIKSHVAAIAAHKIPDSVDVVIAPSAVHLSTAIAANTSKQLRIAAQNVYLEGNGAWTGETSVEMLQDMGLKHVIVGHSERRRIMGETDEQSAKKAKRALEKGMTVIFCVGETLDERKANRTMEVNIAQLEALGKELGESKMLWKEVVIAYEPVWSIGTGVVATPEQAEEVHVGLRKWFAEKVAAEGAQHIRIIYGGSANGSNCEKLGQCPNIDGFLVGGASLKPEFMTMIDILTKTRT
The data set can be described thus: Quantification of free Cys of derivatized GlTIM (Ellman's reagent). It counts as biochemical, Giardia lamblia. As to conditions: for Number of free Cys per monomer after treatment: GlTIM 6 mg/mL (214 µM), compound 1 mM, two hours at 37 °C; for Number of free Cys per monomer after treatment and then DTT: derivatized enzyme incubated with 5 mM DTT during 15 minutes. Here is the method: We evaluated the first option by determining the residual free Cys after derivatization with compounds and afterwards reducing agent treatment. Thus, 6 mg/mL (214 µM) of GlTIM was incubated with or without each one of compounds (1 mM) during two hours at 37 °C. It is important to remark that at the protein concentration used for this aim, a considerable quantity was precipitated. Therefore, the incubation of the samples was arrested by centrifuging and then filtration through a 3 mL Sephadex G-25 column, and the number of free Cys quantified from the soluble protein. […] In contrast, the number of Cys per monomer obtained for omeprazole, BHO2 and BHO3 treatment was respectively 2.02 ± 0.02, 1.9 ± 0.2 and 2.15 ± 015. […] An aliquot of each derivatized enzyme was withdrawn and incubated with 5 mM DTT during 15 minutes; then, the samples were filtered and the free Cys was again quantified. The number of Cys/monomer was 2.2 ± 0.2, 2,1 ± 0.22 and 1.8 ± 0.18 for omeprazole, BHO2 and BHO3, respectively.
To carry out the experiments, the derivatized GlTIM with different molecules was incubated with 2 mM DTT and then filtered through 3 mL Sephadex G-25 column to remove the unreacted compounds. All spectroscopic assays were carried out at protein concentration of 0.2 mg/mL (7 µM). Cysteine quantification was performed spectrophotometrically using de Ellman’s reagent as described before, [36]. Briefly, 200 µg of GlTIM were suspended in TE buffer supplemented with 5% SDS; after an incubation of 10 min at 25 °C, the enzyme was added to a cuvette containing 500 µL of TE buffer supplemented with 5% SDS and 1 mM DTNB. Cysteine quantification was done following the increase of absorbance at 412 nm, using an ε M ^−1 cm ^−1 of 13,600[36].
(In general: Ellman's reagent forms a yellow product with free thiols.)

The test system of data set [2] is G. lamblia WB trophozoites. The data set can be described thus: Susceptibility assay of Giardia trophozoites. Type of data set: cell-based, Giardia lamblia. As to conditions: Giardia duodenalis; 48 hours at 37 °C with compound, then 48 hours in compound-free medium; ± standard error. Here is the method:
The anti-giardiasic ability of compounds was tested in an in vitro. […] Thus, for BHO2 and BHO3 the values (130 and 122 µM, respectively) were around of the half of that obtained for omeprazole (300 µM).
Figure 6 Anti-giardiasic activity of Compounds in trophozoites. Cultures of trophozoites (100,000 trophozoites/mL) were incubated during 48 hours at 37 °C with increasing concentrations of compounds. Afterward, samples were withdrawn and resuspended in a medium free of compounds. The samples were incubated for other 48 hours/37 °C and thereafter, the viability of trophozoites were quantified. The values represent ± standard deviation from three independent experiments.
We used the G. lamblia WB reference isolate in all experiments. The splitting method used to our susceptibility assays is described below. Cultures with 100,000 trophozoites/mL on TYI-S-33 medium were incubated during 48 hours at 37 °C supplemented with increasing concentrations of compounds ranging from 32.5 to 500 µM. Afterward, samples were chilled in ice for 15 minutes, washed with medium and resuspended in 50 µL of medium free of compounds and antibiotic. Then, trophozoites were diluted in 1 mL of medium free of compounds and antibiotic, incubated for 48 hours at 37 °C and then, the viability of trophozoites was manually quantified by using a Neubauer chamber; the viability percent and IC50 was subsequently calculated.

A short description of data set [3]: Cytotoxicity assay (MTT) in human fibroblasts. It counts as cell-based. As to conditions: human, gingival human fibroblasts, 95% confidence limits in square brackets. Here is the method: (§2) The cytotoxic effect of these compounds was also evaluated in mammal cell cultures and their CC50 values calculated and depicted in Table 2.
(§3) We used the cell lines VERO (ATCC:CCL-81) and gingival human fibroblasts (kindly provided by Dra. María Dolores Farfán from Facultad de Odontología, Universidad Nacional Autónoma de México). The assay procedure is described below. Cells were maintained in a DMEM medium supplemented with antibiotic-antimycotic (1X), L-glutamine (1X) and 10% fetal bovine serum. Cells were incubated in 25 mL plastic culture flasks (Nunc) at 37 °C and 5% CO2. After the cell cultures grew to confluence, we determined the cell viability by using Trypan Blue method; then, cells were seeded at 4 × 10^4 cells/well in 100 µL culture medium during 24 hours. […] DMSO was maintained constant at 0.2%; a control was performed by incubating cells with this solvent concentration but in absence of compounds. After incubation time, we measured the cell viability by using MTT (3-(4,5-Dimethyl-2-thiazolyl)-2,5-diphenyl-2H-tetrazolium bromide; Roche Diagnostics) method. Briefly, 10 µL MTT (5 mg/mL) was added to cell cultures and incubated at 37 °C during four hours; then, 100 µL of solution containing 10% SDS and 0.01N HCl was added. Thereafter, the formazan products were spectrophotometrically quantified at 570 nm (Labxystem Uniskan, Manchester). The CC50 (median cytotoxicity concentration) and CI95 (95% confidence interval) values from each experiment were determined from the concentration-percentage plots of cell viability obtained by logistic regression. Statistical analysis was performed using the SPPSS software (version 17.0).

Data set [4] in a line: Cytotoxicity assay (MTT) in VERO cells. It counts as cell-based. Particulars: African green monkey, VERO cells (ATCC CCL-81); 24 hours, MTT; 95% confidence limits in square brackets. Here is the method: as §2, §3
The next data set deals with VERO cells. The data set can be described thus: Cytotoxicity assay (MTT) in VERO cells. It counts as cell-based. Particulars: for CC50 mammal cells relative to IC50 for trophozoites: mammal cells: human fibroblasts and VERO cells together. On the procedure: as §2, §3
The nature of data set [5]: Solubility (remark in the discussion). Type of data set: physicochemical.
In the next data set the target is T3, mutant GlTIM C222A (Giardia intestinalis, UniProt P36186, C202A/C222A).
T3 construct: made in house
T3 sequence (P36186 whole entry C202A/C222A): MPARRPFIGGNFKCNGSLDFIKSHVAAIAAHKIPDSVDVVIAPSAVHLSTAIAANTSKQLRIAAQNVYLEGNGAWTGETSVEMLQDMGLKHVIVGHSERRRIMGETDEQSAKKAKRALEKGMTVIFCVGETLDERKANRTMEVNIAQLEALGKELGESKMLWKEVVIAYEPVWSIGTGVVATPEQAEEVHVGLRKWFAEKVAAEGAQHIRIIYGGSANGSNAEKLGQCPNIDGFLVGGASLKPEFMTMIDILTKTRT
The data set can be described thus: Inactivation assay of mutant GlTIM C222A. Type of data set: biochemical, Giardia lamblia. Here is the method: as §1, with “For all assays, the enzymes were freshly prepared with no more of two weeks of storage.” left out
(§4) TIM activity was determined in a Cary50 spectrophotometer (Varian) at 25 °C using coupling assay following the conversion of D-glyceraldehyde 3-phosphate to dihydroxyacetone phosphate as described before. […]
(§5) Omeprazole and compounds stock solutions were freshly prepared using 100% DMSO as solvent. […] The reaction was stopped by diluting the enzyme 40,000 times in TE buffer and then, the remaining activity was determined. The second-order rate constants of inactivation were calculated from obtaining the pseudo-first order rate constant (k 1) values at each fixed concentration of compounds by fitting them to an exponential decay. […]

In another data set the target is T4, human TIM (HsTIM) (Homo sapiens, UniProt P60174).
T4 construct: made in house
T4 sequence (P60174 whole entry): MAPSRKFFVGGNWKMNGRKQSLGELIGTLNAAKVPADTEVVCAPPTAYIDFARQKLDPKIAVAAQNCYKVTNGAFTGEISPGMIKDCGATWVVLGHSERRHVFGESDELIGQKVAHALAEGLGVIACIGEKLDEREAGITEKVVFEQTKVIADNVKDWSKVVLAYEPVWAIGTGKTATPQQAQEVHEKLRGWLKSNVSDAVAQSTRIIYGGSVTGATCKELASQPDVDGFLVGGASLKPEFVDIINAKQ
The data set can be described thus: Inactivation assay of human TIM. It counts as biochemical. On the procedure: as §1, with “For all assays, the enzymes were freshly prepared with no more of two weeks of storage.” left out
as §4, §5

The test system of data set [6] is gingival human fibroblasts. The data set can be described thus: Cytotoxicity assay (MTT) in human fibroblasts. Type of data set: cell-based. As to conditions: 24 hours, 95% confidence limits in square brackets. On the procedure: as §2, §3
The target of data set [7] is T1, triosephosphate isomerase of G. lamblia (GlTIM). As to conditions: cited from earlier work.

T1 sequence (P36186 whole entry C202A): as the sequence (P36186 whole entry C202A) above

`COc1c(C)cnc(C[S+]([O-])c2nc3ccc(C)cc3[nH]2)c1C` (centres unmarked) [BHO2, 2-[(4-methoxy-3,5-dimethylpyridin-2-yl)methylsulfinyl]-5(6)-methyl-1H-benzimidazole]: the melting point (in general, the temperature, or range, at which the solid turns liquid) was 221.4 to 222.8 °C. Also, in data set [1], the concentration for half-maximal inhibition (IC50) (commonly the concentration needed to halve the response being measured) was found to be 64 µM, the “Increase of reactivity against GlTIM respect to omeprazole” value is “three-fold”, the “Reversibility of GlTIM inhibition” value is given as “irreversibly” and the kinact/KI came out at 1.6 ± 0.1 M⁻¹ s⁻¹. Besides, the “Number of free Cys per monomer after treatment” value at GlTIM is reported as 1.9 ± 0.2 Cys/monomer. Besides, in data set [2], the IC50 turned out to be 130 µM. For the same compound, the cytotoxic concentration (CC50) (as a rule, the concentration that lowers cell viability or growth by half) at 24 h in data set [3] was determined as 5000 µM. The same compound had a CC50 at 24 h in data set [4] of 8000 µM. Moreover, the “CC50 mammal cells relative to IC50 for trophozoites” value in the data set with VERO cells is given as 38- to 61 fold. Further, the “Solubility respect to omeprazole” value in [5] is recorded as “improved its solubility”.
Compound `Cc1ccc2nc([S+]([O-])Cc3ccccn3)[nH]c2c1` (centres unmarked) [BHO1, 5(6)-methyl-2-[(pyridin-2-ylmethyl)sulfinyl]−1H-benzimidazole] yielded a melting point of 121.3 to 122.9 °C. For the same compound, the “Inactivation of GlTIM (in words)” value in [1] was “inactivated scarcely”.
In the case of `COc1ccc2[nH]c([S+]([O-])Cc3ncc(C)c(OC)c3C)nc2c1` (centres unmarked) [Omeprazole, omeprazole, reference compound], in data set [1], the IC50 turned out to be 225 µM, the “Inactivation of GlTIM (in words)” value is “inactivated the GlTIM completely” and the kinact/KI was determined as 0.78 ± 0.016 M⁻¹ s⁻¹. Besides, the “Effect on activity of mutant GlTIM C222A (in words)” value at mutant GlTIM C222A is recorded as “affects marginally”. Besides, at human TIM (HsTIM), the “Inactivation of HsTIM (in words)” value was “unaffected”. Besides, at GlTIM, the “Number of free Cys per monomer after treatment” value came to 2.02 ± 0.02 Cys/monomer; the “Number of free Cys per monomer after treatment and then DTT” value came to 2.2 ± 0.2 Cys/monomer. Besides, the IC50 in data set [2] turned out to be 300 ± 10.2 µM. The “CC50 Human Fibroblasts” value in data set [6] is “No effect”. Besides, the “CC50 Human Fibroblasts” value in data set [6] (listed as omeprazole) is “did not show cytotoxic effect”. In data set [4], this compound came in with a cytotoxic concentration (CC50) at 24 h of 14000 µM. For the same compound, in the data set with VERO cells, the “CC50 VERO cells relative to trophozoites cytotoxicity” value turned out to be 46 fold. In [7], the “Reversibility of GlTIM inhibition, reported before” value is given as “irreversible” and the “Second-order rate constant of inactivation, previously reported” value is 0.6 M⁻¹ s⁻¹.
`Cc1ccc2nc([S+]([O-])Cc3nccc(OCC(F)(F)F)c3C)[nH]c2c1` (centres unmarked) [BHO3, 5(6)-Methyl-2-({[3-methyl-4-(2,2,2-trifluoroethoxy)pyridin-2-yl]methyl}sulfinyl]-1H-benzimidazole]: the melting point fell in the range of 228.5 to 229.8 °C. In data set [1], the IC50 was 100 µM, the “Increase of reactivity against GlTIM respect to omeprazole” value is reported as “two-fold”, the “Reversibility of GlTIM inhibition” value is “irreversibly” and the kinact/KI stood at 1.2 ± 0.06 M⁻¹ s⁻¹. Also, at GlTIM, the “Number of free Cys per monomer after treatment” value is 2.15 ± 015 Cys/monomer; the “Number of free Cys per monomer after treatment and then DTT” value is given as 1.8 ± 0.18 Cys/monomer. Moreover, the IC50 in data set [2] amounted to 122 ± 1.7 µM. In data set [3], this compound had a 50% cytotoxic concentration (CC50) at 24 h of 5500 µM. In data set [4], this compound registered a CC50 at 24 h of 4700 µM. Further, the “CC50 mammal cells relative to IC50 for trophozoites” value in the data set on VERO cells is on record as 38- to 61 fold.
